Results: patent EP4458830A1, “TRICYCLIC COMPOUND, METHOD FOR PREPARING SAME, AND USE THEREOF” (Sichuan Kelun-Biotech Biopharmaceutical Co., Ltd., priority 2021, dated 2023)

Tests used:
human TLR7 = target: T1, human TLR7 (Homo sapiens, UniProt Q9NYK1); test: Agonistic activity of compounds on HEK-Blue hTLR7 cells (QUANTI-Blue reporter, OD620); format: cell-based; conditions: for EC50 / Emax: HEK-Blue hTLR7 cells; for EC50: 20 h incubation; for Emax: OD620 at which the activation effect reached the maximum; for activation effect on human TLR7: summary in words
T1 construct: host or cells: HEK-Blue hTLR7 cells (HEK293-derived reporter line; that the line is stably transfected with the human TLR7 gene is own knowledge of the vendor's product)
T1 sequence (Q9NYK1 27-1049): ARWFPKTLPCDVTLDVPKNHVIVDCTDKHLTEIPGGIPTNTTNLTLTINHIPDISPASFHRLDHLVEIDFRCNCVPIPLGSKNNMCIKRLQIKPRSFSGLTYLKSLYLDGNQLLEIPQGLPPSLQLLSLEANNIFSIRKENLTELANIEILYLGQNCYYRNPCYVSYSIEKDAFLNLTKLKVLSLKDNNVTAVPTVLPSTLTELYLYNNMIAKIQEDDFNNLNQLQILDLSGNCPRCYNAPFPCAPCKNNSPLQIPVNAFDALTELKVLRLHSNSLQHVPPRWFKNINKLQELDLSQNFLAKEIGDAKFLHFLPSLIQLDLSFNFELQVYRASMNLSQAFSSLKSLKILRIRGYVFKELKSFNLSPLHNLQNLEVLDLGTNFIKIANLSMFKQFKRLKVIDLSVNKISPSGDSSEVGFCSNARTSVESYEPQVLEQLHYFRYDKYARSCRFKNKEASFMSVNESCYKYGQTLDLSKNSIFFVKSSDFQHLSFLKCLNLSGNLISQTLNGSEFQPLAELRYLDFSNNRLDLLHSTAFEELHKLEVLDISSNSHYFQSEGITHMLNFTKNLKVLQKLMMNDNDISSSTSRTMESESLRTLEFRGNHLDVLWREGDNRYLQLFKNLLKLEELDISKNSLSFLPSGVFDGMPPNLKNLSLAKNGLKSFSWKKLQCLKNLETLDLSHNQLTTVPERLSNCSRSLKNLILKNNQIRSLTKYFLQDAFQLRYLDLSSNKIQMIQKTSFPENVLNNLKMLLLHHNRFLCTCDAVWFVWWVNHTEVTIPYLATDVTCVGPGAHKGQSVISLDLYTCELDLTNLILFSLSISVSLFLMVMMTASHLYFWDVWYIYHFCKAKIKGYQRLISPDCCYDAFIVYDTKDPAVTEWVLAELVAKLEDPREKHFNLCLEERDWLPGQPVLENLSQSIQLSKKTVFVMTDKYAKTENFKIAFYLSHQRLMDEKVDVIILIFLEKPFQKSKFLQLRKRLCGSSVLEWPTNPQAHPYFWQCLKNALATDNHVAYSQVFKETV
Procedure: • 1. HEK-Blue hTLR7 cells (Invivogen) were cultured in DMEM medium (Hyclone) containing 10% FBS heat-inactivated fetal bovine serum (Corning). On the day of detection, the cell state was observed under a microscope, the cells were collected and resuspended, and the cell concentration was adjusted after counting, 50 µL per well, the total amount of cells was 2×10^4, and the cells were inoculated in a 96-well plate. • 2. After the cells adhered to the wall overnight, 50 µL of the test compound at different concentrations was added into the well plate, so that the final concentrations were 100 µM, 33.3 µM, 11.11 µM, 3.70 µM, 1.23 µM, 0.41 µM, 0.14 µM, 0.05 µM, 0 µM, and the final concentration of DMSO was 1%. The compound was incubated with the cells in a 37°C, 5% CO2 incubator for 20 h. • 3. After the incubation, observation under microscope was performed to determine the maximum signal well, the states of the cells with the highest and lowest concentrations of the compound, and whether the compound will crystalize at high concentration. 10 µL of cell culture supernatant was taken and transferred to a new 96-well transparent plate, 90 µL of QUANTI-Blue (Invivogen) detection reagent was added to each well, and incubated at 37°C for 3 h, and OD620 was read with a multifunctional microplate reader (BMG LABTECH). • 4. EC50 was calculated by fitting with Graphpad Prism software log(agonist) vs. response - Variable slope, and Emax was the OD620 at which the activation effect of the test compound reached the maximum.

human TLR8 = target: T2, human TLR8 (Homo sapiens, UniProt Q9NR97); test: Agonistic activity of compounds on HEK-Blue hTLR8 cells (QUANTI-Blue reporter, OD620); format: cell-based; conditions: for EC50 / Emax: HEK-Blue hTLR8 cells; for EC50: 20 hours incubation; for Emax: OD620 at which the activation effect reached the maximum; for activation effect on human TLR8: summary in words
T2 construct: host or cells: HEK-Blue hTLR8 cells (HEK293-derived reporter line; that the line is stably transfected with the human TLR8 gene is own knowledge of the vendor's product)
T2 sequence (Q9NR97 27-1041): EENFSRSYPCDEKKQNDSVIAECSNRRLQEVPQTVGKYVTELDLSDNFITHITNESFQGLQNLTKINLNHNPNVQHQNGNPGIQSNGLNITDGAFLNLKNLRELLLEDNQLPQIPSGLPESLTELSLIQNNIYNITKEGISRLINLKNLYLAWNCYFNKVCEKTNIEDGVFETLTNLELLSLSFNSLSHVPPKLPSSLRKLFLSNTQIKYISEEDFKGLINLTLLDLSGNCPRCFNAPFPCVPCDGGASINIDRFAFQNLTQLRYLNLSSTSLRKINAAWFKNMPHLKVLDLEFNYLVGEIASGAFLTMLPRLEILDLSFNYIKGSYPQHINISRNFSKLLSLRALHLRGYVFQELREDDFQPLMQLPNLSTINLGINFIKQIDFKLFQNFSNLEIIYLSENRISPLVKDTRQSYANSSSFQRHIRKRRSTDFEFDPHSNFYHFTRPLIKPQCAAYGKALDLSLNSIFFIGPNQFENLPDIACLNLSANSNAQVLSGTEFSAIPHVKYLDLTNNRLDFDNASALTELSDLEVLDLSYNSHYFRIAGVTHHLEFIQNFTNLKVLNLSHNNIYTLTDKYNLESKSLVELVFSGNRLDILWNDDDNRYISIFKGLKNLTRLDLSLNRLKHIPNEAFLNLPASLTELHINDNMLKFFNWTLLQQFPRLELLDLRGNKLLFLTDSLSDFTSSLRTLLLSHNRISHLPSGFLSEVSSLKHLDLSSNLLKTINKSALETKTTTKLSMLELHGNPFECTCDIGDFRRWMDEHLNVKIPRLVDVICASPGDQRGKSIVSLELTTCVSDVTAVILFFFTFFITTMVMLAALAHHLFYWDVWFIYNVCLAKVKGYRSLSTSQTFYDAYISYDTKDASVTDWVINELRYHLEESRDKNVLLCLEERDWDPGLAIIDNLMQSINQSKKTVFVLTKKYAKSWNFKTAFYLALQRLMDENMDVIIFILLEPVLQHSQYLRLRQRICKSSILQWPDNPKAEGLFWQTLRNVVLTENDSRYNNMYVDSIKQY
Procedure: • 1. HEK-Blue hTLR8 cells (Invivogen) were cultured in DMEM medium (Hyclone) containing 10% FBS heat-inactivated fetal bovine serum (Corning). On the day of detection, the cell state was observed under a microscope, the cells were collected and resuspended, and the cell concentration was adjusted after counting, 50 µL per well, the total amount of cells was 2×10^4, and the cells were inoculated in a 96-well plate. • 2. After the cells adhered to the wall overnight, 50 µL of the test compound at different concentrations was added to the well plate, so that the final concentrations were 100 µM, 25 µM, 6.25 µM, 1.56 µM, 0.39 µM, 0.10 µM, 0.02 µM, 0.006 µM, 0 µM, or 100 µM, 33.3 µM, 11.11 µM, 3.70 µM, 1.23 µM, 0.41 µM, 0.14 µM, 0.05 µM, 0 µM, and the final concentration of DMSO was 1%. The compound was incubated with the cells in a 37°C, 5% CO2 incubator for 20 hours. • 3. After the incubation, observation was performed under microscope to determine the maximum signal well, the state of the cells with the highest and lowest concentrations of the compound, and whether the compound will crystalize at high concentration. 10 µL of cell culture supernatant was transferred to a new 96-well transparent plate, added with 90 µL of QUANTI-Blue (Invivogen) detection reagent to each well, incubated at 37°C for 3 hours, and OD620 was read with a multifunctional microplate reader (BMG LABTECH). • 4. EC50 was calculated by fitting with Graphpad Prism software log(agonist) vs. Response - Variable slope, and Emax was the OD620 at which the activation effect of the test compound reached the maximum.

Q: For CCCCc1nc2c(N)nc3cc(C)sc3c2n1CCCCN [Compound 1, 1-(4-aminobutyl)-2-butyl-7-methyl-1H-imidazo[4,5-d]thieno[3,2-b]pyridine-4-amine], which EC50 (human TLR7) is on record?
A: Its EC50 is 0.22 µM.

Q: What about the Emax (human TLR7) of the same molecule?
A: Its Emax is 1.36 OD620.

Q: And the “activation effect on human TLR7” value (human TLR7)?
A: The value was “strong activation effect”.

Q: And the EC50 (human TLR8)?
A: The EC50 was 5.83 µM.

Q: And the Emax (human TLR8)?
A: The Emax was 1.43 OD620.

Q: And the “activation effect on human TLR8” value (human TLR8)?
A: The value was “strong activation effect”.

Q: For CCCCc1nc2c(N)nc3ccsc3c2n1CCCCN [Compound 2, 1-(4-aminobutyl)-2-butyl-1H-imidazo[4,5-d]thieno[3,2-b]pyridine-4-amine], which EC50 (human TLR7) is on record?
A: Its EC50 is 0.28 µM.

Q: What about the Emax (human TLR7) of the same molecule?
A: Its Emax is 1.36 OD620.

Q: And the “activation effect on human TLR7” value (human TLR7)?
A: Its value is “strong activation effect”.

Q: And the EC50 (human TLR8)?
A: The EC50 was 8.83 µM.

Q: And the Emax (human TLR8)?
A: Its Emax is 1.37 OD620.

Q: What about the “activation effect on human TLR8” value (human TLR8) of the same molecule?
A: The value was “strong activation effect”.

Q: How did the EC50 (human TLR7) turn out when CCCCc1nc2c(N)nc3cc(C)sc3c2n1CC1CCNCC1 [Compound 3, 2-butyl-7-methyl-1-(piperidin-4-ylmethyl)-1H-imidazo[4,5-d]thieno[3,2-b]pyridine-4-amine] was run?
A: The EC50 was 0.47 µM.

Q: What about the Emax (human TLR7) of the same molecule?
A: The Emax was 1.43 OD620.

Q: What about the “activation effect on human TLR7” value (human TLR7) of the same molecule?
A: The value was “strong activation effect”.

Q: And the EC50 (human TLR8)?
A: Its EC50 is 19.4 µM.

Q: What about the Emax (human TLR8) of the same molecule?
A: The Emax was 1.86 OD620.

Q: And the “activation effect on human TLR8” value (human TLR8)?
A: The value was “strong activation effect”.

Q: Which results are given for CCCCc1nc2c(N)nc3cc(C4CCN(C)CC4)sc3c2[nH]1 [Compound 6, 2-butyl-7-(1-methylpiperidin-4-yl)-1H-imidazo[4,5-d] thieno[3,2-b]pyridine-4-amine]?
A: EC50 (human TLR7): 0.44 µM; Emax (human TLR7): 1.08 OD620; activation effect on human TLR7 (human TLR7): strong activation effect; EC50 (human TLR8): 15.3 µM; Emax (human TLR8): 1.11 OD620; activation effect on human TLR8 (human TLR8): strong activation effect

Q: Which results are given for CCCCc1nc2c(N)nc3ccsc3c2n1CC1CCN(C)CC1 [Compound 27, 2-butyl-1-[(1-methylhexahydropyridin-4-yl)methyl] thieno[3,2-b]imidazo[4,5-d]pyridine-4-amine]?
A: EC50 (human TLR7): 0.27 µM; Emax (human TLR7): 1.59 OD620; activation effect on human TLR7 (human TLR7): strong activation effect; EC50 (human TLR8): 11.9 µM; Emax (human TLR8): 0.84 OD620; activation effect on human TLR8 (human TLR8): strong activation effect

Q: Which results are given for CCCCc1nc2c(N)nc3cc(C4CCNCC4)sc3c2n1CC1CCOCC1 [Compound 33, 2-butyl-7-(hexahydropyridin-4-yl)-1-(3,4,5,6-tetrahydro-2H-pyran-4-ylmethyl)thieno[3,2-b]imidazo[4,5-d]pyridine-4-amine]?
A: EC50 (human TLR7): 0.03 µM; Emax (human TLR7): 1.46 OD620; activation effect on human TLR7 (human TLR7): strong activation effect; EC50 (human TLR8): 18.9 µM; Emax (human TLR8): 0.67 OD620; activation effect on human TLR8 (human TLR8): strong activation effect
